Assay results as given in paper PMC11865577 (2024).

What was measured:
[1] = tested on: hsa-mir-6850 (RNA, G4) AGCCGGGGCGGGAGGGGAAGGGACGCCCGGCU; experiment: fluorescence titration; conditions: 20 mM NaCl, 80 mM KCl, apparent
[2] = tested on: hsa-mir-191 (RNA, miRNA) AGCCAGCUGUUGUCUCCAGAGCAUUCCAGCUGGCU; experiment: fluorescence titration; conditions: 20 mM NaCl, 80 mM KCl, phosphate pH 7.0, apparent
[3] = tested on: hsa-mir-21 (RNA, miRNA) AGCGUUGACUGUUGAAUCUCAUGGCAACGCU; experiment: fluorescence titration; conditions: 20 mM NaCl, 80 mM KCl, phosphate pH 7.0, apparent
[4] = tested on: hsa-mir-221 (RNA, miRNA) AGCAGAUUUCUGUGUUCGUUAGGCAACAGCUGCU; experiment: fluorescence titration; conditions: 20 mM NaCl, 80 mM KCl, phosphate pH 7.0, apparent
[5] = tested on: hsa-mir-374a (RNA, miRNA) AGCUAAGUGUUAUAGCACUUAGCU; experiment: fluorescence titration; conditions: 20 mM NaCl, 80 mM KCl, phosphate pH 7.0, apparent
[6] = tested on: hsa-mir-4437 (RNA, miRNA) AGCUCCACAAGGAGGGGAUGACCCUUGUGGGGCU; experiment: fluorescence titration; conditions: 20 mM NaCl, 80 mM KCl; 20 mM phosphate pH 7.0, 1% DMSO, 20 °C; apparent
[7] = tested on: hsa-mir-4520-1 loop (RNA, miRNA) AGCCCAAAUCAGAAAAGGAUUUGGGCU; experiment: fluorescence titration; conditions: 20 mM NaCl, 80 mM KCl; 20 mM phosphate pH 7.0, 1% DMSO, 20 °C; apparent
[8] = tested on: hsa-mir-4520-1-mutG2A (RNA, miRNA) AGCCCAAAUCAAAAAAGGAUUUGGGCU; experiment: fluorescence titration; conditions: 20 mM NaCl, 80 mM KCl; 20 mM phosphate pH 7.0, 1% DMSO, 20 °C; apparent
[9] = tested on: hsa-mir-4520-1-mutG7A (RNA, miRNA) AGCCCAAAUCAGAAAAAGAUUUGGGCU; experiment: fluorescence titration; conditions: 20 mM NaCl, 80 mM KCl; 20 mM phosphate pH 7.0, 1% DMSO, 20 °C; apparent
[10] = tested on: hsa-mir-4520-1 mutG2,7A (RNA, miRNA) AGCCCAAAUCAAAAAAAGAUUUGGGCU; experiment: fluorescence titration; conditions: 20 mM NaCl, 80 mM KCl; 20 mM phosphate pH 7.0, 1% DMSO, 20 °C; apparent
[11] = tested on: hsa-mir-6847 (RNA, miRNA) AGCGAGCUGGAAGGAGUGGGCCUGGCUCGCU; experiment: fluorescence titration; conditions: 20 mM NaCl, 80 mM KCl; 20 mM phosphate pH 7.0, 1% DMSO, 20 °C; apparent
[12] = tested on: G4_(GGGU)6 (RNA, G4) AGCGGGUGGGUGGGUGGGUGGGUGGGUGCU; experiment: fluorescence titration; conditions: 20 mM NaCl, 80 mM KCl; 20 mM phosphate pH 7.0, 1% DMSO, 20 °C; apparent
[13] = tested on: hsa-mir-4773-1 (RNA, miRNA) AGCUCUGCUUUAUUUCAUCAAAGCAGAGCU; experiment: fluorescence titration; conditions: 20 mM NaCl, 80 mM KCl; 20 mM phosphate pH 7.0, 1% DMSO, 20 °C; apparent
[14] = tested on: common stem sequence with four Us in the terminal loop (RNA, hairpin) GUGUACGAAGUUUCAGCUUUUGCUGAAGCUUCGUGCAC; experiment: fluorescence titration; conditions: 20 mM NaCl, 80 mM KCl; 20 mM phosphate pH 7.0, 1% DMSO, 20 °C; apparent
[15] = tested on: mutG7A (biotinylated) (RNA, miRNA) AGCCCAAAUCAGAAAAAGAUUUGGGCU; experiment: SPR, multi-cycle, 1:1 fit; conditions: 20 mM NaCl, 80 mM KCl; 20 mM phosphate pH 7.0, 1% DMSO, 25 °C; up to 50 μM; apparent
[16] = tested on: hsa-mir-4520-1 loop (biotinylated) (RNA, miRNA) AGCCCAAAUCAGAAAAGGAUUUGGGCU; experiment: SPR, single-cycle kinetics; conditions: 20 mM NaCl, 80 mM KCl; 20 mM phosphate pH 7.0, 25 °C; apparent
[17] = tested on: mutG2A (biotinylated) (RNA, miRNA) AGCCCAAAUCAAAAAAGGAUUUGGGCU; experiment: SPR, single-cycle kinetics; conditions: 20 mM NaCl, 80 mM KCl; 20 mM phosphate pH 7.0, 25 °C; apparent
[18] = 20 mM phosphate pH 7.0, 1% DMSO, 20 °C, 0.1 μM compound
[19] = 1 μM compound, range 2.6-16 μM for all RNAs

CN1C(=CC=Cc2cc[n+](CCC[N+](C)(C)C)c3ccccc23)Sc2ccccc21
KDapp [1, 18]: 0.19 µM

COc1ccc2c(c[n+](C)c3c4cc5c(cc4ccc23)OCO5)c1OC
KDapp ([1]; phosphate pH 7.0, 1 μM compound, range 2.6-16 μM for all RNAs): 4.0 ± 0.5 µM
KDapp [2, 19]: 3.8 ± 0.5 µM
KDapp [3, 19]: 2.6 ± 0.6 µM
KDapp [4, 19]: 3.8 ± 0.3 µM
KDapp [5, 19]: 12 ± 1 µM

C[n+]1c(C=C2C=CN(CCC[N+](C)(C)C)c3ccccc32)sc2ccccc21
KDapp [1, 18]: 0.20 µM

C[n+]1ccc(C=C2Sc3ccccc3N2CCCCC(=O)NCCOCCOCCOCCN=[N+]=[N-])c2ccccc21
KDapp [6]: 4.4 µM

N#CC(c1ccnc(OCc2ccc(CN3CCOCC3)cc2)n1)c1nc2ccccc2s1 (stereo not shown)
KDapp ([1]; phosphate pH 7.0, 1 μM compound): 4.5 µM
KDapp ([2]; 1 μM compound): 14 µM
KDapp ([3]; 1 μM compound): 20 µM

O=c1c(O)c(-c2cc(O)c(O)c(O)c2)oc2cc(O)cc(O)c12
KDapp ([1]; phosphate pH 7.0): 3.3 ± 0.1 µM
KDapp ([2]; range 16-25 μM for target RNAs): 25 ± 3 µM
KDapp ([3]; range 16-25 μM for target RNAs): 16 ± 0.5 µM
KDapp ([4]; range 16-25 μM for target RNAs): 20 ± 2 µM
KDapp ([5]; 0-40 μM RNA, low-rank RNA): > 40 µM

O=c1cc(-c2ccccc2)oc2cc(O)c(O)c(O)c12
KDapp ([2]; 0-40 μM RNA): > 40 µM
KDapp ([3]; 0-40 μM RNA): > 40 µM
KDapp ([4]; 0-40 μM RNA): > 40 µM

[N-]=[N+]=NCCOCCOCCOCCNC(=O)Cn1cc2c(nc1=O)Nc1c(OCCN)cccc1O2
KDapp [7]: 0.024 µM
KDapp [8]: 0.011 µM
KDapp [9]: 15 µM
KDapp [10]: 3.7 µM
KDapp [11]: 0.022 µM
KDapp ([1]; 20 mM phosphate pH 7.0, 1% DMSO, 20 °C): 0.19 µM
KDapp [12]: 0.15 µM
KDapp [13]: > 20 µM
KDapp [14]: 9 µM
KDapp [15]: > 50 µM
KDapp [16]: 0.10 ± 0.02 µM
KDapp [17]: 0.044 ± 0.008 µM
